Data: US20040191115A1 (priority 2003, published 2004)
“And” between values parts separate entries of the source, which are not always exact repeats. Identical values can stand only once. Like-named read-outs stand apart in the source and are kept apart here.

Legend:
[1] = tested on: bacillus atrophaeus spores; conditions: 3.12 percent H2O2, no machine operation, without cartons; for average count of colony forming units for the time period / log of average count for the time period: mean of samples
Experimental: (§1) Studies were conducted to determine the microbial eradication on mandrels 34 that were subjected to vaporized sterilant introduced at the heaters 40. […] The efficacy of the mandrel sterilization was studied for both the mandrel caps 35 and the mandrel side tubes 37 (see FIG. 3).
(§2) Each of the studies was further carried out using a testing media of bacillus atrophaeus spores for inoculating the mandrels. The mandrels were inoculated by spraying, using an aerating spray bottle having a solution with a concentration of about 7 log bacillus spores. The mandrels were then allowed to air dry. Controls were swabbed using cotton swabs to assure that the mandrels were properly inoculated. Following the machine operating period of the test, the mandrels were swabbed and the bacillus spores transferred to an agar media for incubation of the spores (at 32° C. for 48 hours) and subsequent recovery.
In this part of the analysis, the form, fill and seal machine was operated without cartons and without indexing (rotation) of the mandrels.

[2] = tested on: bacillus atrophaeus spores; conditions: 2.52 percent H2O2, with cartons; for average count of colony forming units for the time period / log of average count for the time period: mean of samples; for average count of colony forming units for the time period / log of average count for the time period / Log Red. (Avg): normal speed; for Average CFU/mL / Average CFU/mandrel / Log (of Average CFU/mandrel) / Result #1 CFU/mL / Result #2 CFU/mL: normal operating speed
Experimental: as §1, §2
The data was collected by taking swab samples at the mandrel cap (C) and on the mandrel side tubes (T). The mandrel side tube data is the sum of all of the side tubes.

[3] = time 0 min, swab site C (mandrel cap)
[4] = time 0 min, swab site T (mandrel side tubes)
[5] = time 10 min, swab site C (mandrel cap)
[6] = time 10 min, swab site T (mandrel side tubes)
[7] = time 20 min, swab site C (mandrel cap)
[8] = time 20 min, swab site T (mandrel side tubes)
[9] = time 30 min, swab site C (mandrel cap)
[10] = time 30 min, swab site T (mandrel side tubes)

OO [hydrogen peroxide]
average count of colony forming units for the time period ([1]; time 0 min): 3.51E+05 CFU/mandrel | log of average count for the time period ([1]; time 0 min): 5.55 log | average count of colony forming units for the time period ([1]; time 15 min): 2.90E+05 CFU/mandrel | log of average count for the time period ([1]; time 15 min): 5.46 log | Average CFU/mL ([1]; time 15 min): 7.85E+04 CFU/mL and 6.65E+04 CFU/mL | Average CFU/mandrel ([1]; time 15 min): 3.14E+05 CFU/mandrel and 2.66E+05 CFU/mandrel | Log (of Average CFU/mandrel) ([1]; time 15 min): 5.50 Log and 5.42 Log | Result #1 CFU/mL ([1]; time 15 min): 7.80E+04 CFU/mL and 4.70E+04 CFU/mL | Result #2 CFU/mL ([1]; time 15 min): 7.90E+04 CFU/mL and 8.60E+04 CFU/mL | Log Red. (Avg.) ([1]; time 15 min relative to time zero): 0.08 Log | average count of colony forming units for the time period ([1]; time 30 min): 2.72E+05 CFU/mandrel | log of average count for the time period ([1]; time 30 min): 5.43 log | Log (of Average CFU/mandrel) ([1]; time 30 min): 5.47 Log and 5.28 Log and 5.49 Log | Result #1 CFU/mL ([1]; time 30 min): 7.40E+04 CFU/mL and 4.30E+04 CFU/mL and 7.80E+04 CFU/mL | Log Red. (Avg.) ([1]; time 30 min relative to time zero): 0.11 Log | average count of colony forming units for the time period ([2]; time 0 min, cap): 5.09E+05 CFU/mandrel | log of average count for the time period ([2]; time 0 min, cap): 5.71 log | average count of colony forming units for the time period ([2]; time 0 min, side tubes): 7.12E+05 CFU/mandrel | log of average count for the time period ([2]; time 0 min, side tubes): 5.85 log | Average CFU/mL [2, 3]: 1.32E+05 CFU/mL and 1.23E+05 CFU/mL | Average CFU/mandrel [2, 3]: 5.28E+05 CFU/mandrel and 4.90E+05 CFU/mandrel | Log (of Average CFU/mandrel) [2, 3]: 5.72 Log and 5.69 Log | Result #1 CFU/mL [2, 3]: 1.19E+05 CFU/mL and 1.30E+05 CFU/mL | Result #2 CFU/mL [2, 3]: 1.45E+05 CFU/mL and 1.15E+05 CFU/mL | Average CFU/mL [2, 4]: 1.83E+05 CFU/mL and 1.73E+05 CFU/mL | Average CFU/mandrel [2, 4]: 7.32E+05 CFU/mandrel and 6.92E+05 CFU/mandrel | Log (of Average CFU/mandrel) [2, 4]: 5.86 Log and 5.84 Log | Result #1 CFU/mL [2, 4]: 1.39E+05 CFU/mL and 1.71E+05 CFU/mL | Result #2 CFU/mL [2, 4]: 2.27E+05 CFU/mL and 1.75E+05 CFU/mL | average count of colony forming units for the time period ([2]; time 10 min, cap): 1.57E+05 CFU/mandrel | log of average count for the time period ([2]; time 10 min, cap): 5.20 log | average count of colony forming units for the time period ([2]; time 10 min, side tubes): 3.58E+05 CFU/mandrel | log of average count for the time period ([2]; time 10 min, side tubes): 5.55 log | Average CFU/mL [2, 5]: 3.35E+04 CFU/mL and 4.50E+04 CFU/mL | Average CFU/mandrel [2, 5]: 1.34E+05 CFU/mandrel and 1.80E+05 CFU/mandrel | Log (of Average CFU/mandrel) [2, 5]: 5.13 Log and 5.26 Log | Result #1 CFU/mL [2, 5]: 3.50E+04 CFU/mL and 4.40E+04 CFU/mL | Result #2 CFU/mL [2, 5]: 3.20E+04 CFU/mL and 4.60E+04 CFU/mL | Average CFU/mL [2, 6]: 9.25E+04 CFU/mL and 8.65E+04 CFU/mL | Average CFU/mandrel [2, 6]: 3.70E+05 CFU/mandrel and 3.46E+05 CFU/mandrel | Log (of Average CFU/mandrel) [2, 6]: 5.57 Log and 5.54 Log | Result #2 CFU/mL [2, 6]: 9.70E+04 CFU/mL and 6.70E+04 CFU/mL | Log Red. (Avg) ([2]; time 10 min relative to time zero, cap): 0.51 Log | Log Red. (Avg) ([2]; time 10 min relative to time zero, side tubes): 0.30 Log | average count of colony forming units for the time period ([2]; time 20 min, cap): 8.86E+04 CFU/mandrel | log of average count for the time period ([2]; time 20 min, cap): 4.95 log | average count of colony forming units for the time period ([2]; time 20 min, side tubes): 4.49E+05 CFU/mandrel | log of average count for the time period ([2]; time 20 min, side tubes): 5.65 log | Log (of Average CFU/mandrel) [2, 7]: 4.88 Log and 5.01 Log | Result #1 CFU/mL [2, 7]: 1.93E+04 CFU/mL and 2.82E+04 CFU/mL | Result #2 CFU/mL [2, 7]: 1.86E+04 CFU/mL and 2.25E+04 CFU/mL | Average CFU/mandrel [2, 8]: 5.58E+05 CFU/mandrel and 3.40E+05 CFU/mandrel | Log (of Average CFU/mandrel) [2, 8]: 5.75 Log and 5.53 Log | Log Red. (Avg) ([2]; time 20 min relative to time zero, cap): 0.76 Log | Log Red. (Avg) ([2]; time 20 min relative to time zero, side tubes): 0.20 Log | average count of colony forming units for the time period ([2]; time 30 min, cap): 4.39E+04 CFU/mandrel | log of average count for the time period ([2]; time 30 min, cap): 4.64 log | average count of colony forming units for the time period ([2]; time 30 min, side tubes): 2.49E+05 CFU/mandrel | log of average count for the time period ([2]; time 30 min, side tubes): 5.40 log | Average CFU/mandrel [2, 9]: 5.06E+04 CFU/mandrel and 3.72E+04 CFU/mandrel | Log (of Average CFU/mandrel) [2, 9]: 4.70 Log and 4.57 Log | Result #2 CFU/mL [2, 9]: 1.12E+04 CFU/mL and 1.04E+04 CFU/mL | Average CFU/mL [2, 10]: 6.25E+04 CFU/mL and 6.20E+04 CFU/mL | Average CFU/mandrel [2, 10]: 2.50E+05 CFU/mandrel and 2.48E+05 CFU/mandrel | Log (of Average CFU/mandrel) [2, 10]: 5.40 Log and 5.39 Log
